Measurements taken from US10670605B2, “Cysteine reactive probes and uses thereof” (The Scripps Research Institute, priority 2015, dated 2020).
Values belong to the compound of their own block, whether it stands above or below them.

Legend:
[1] = target: USP34 C1090 (Q70CQ2) (Homo sapiens, UniProt Q70CQ2); assay: Competitive isoTOP-ABPP, cell lysates; assay type: binding; conditions: for isoTOP-ABPP ratio (reactivity profile), Q70CQ2_C1090: 500 μm in-vitro ramos
[2] = target: T1, CYR61 C134 (O00622) (Homo sapiens, UniProt O00622); assay: Competitive isoTOP-ABPP, cell lysates; assay type: binding; conditions: for isoTOP-ABPP ratio (reactivity profile), O00622_C134: 500 μm in-vitro ramos_231
T1 sequence (O00622 25-381): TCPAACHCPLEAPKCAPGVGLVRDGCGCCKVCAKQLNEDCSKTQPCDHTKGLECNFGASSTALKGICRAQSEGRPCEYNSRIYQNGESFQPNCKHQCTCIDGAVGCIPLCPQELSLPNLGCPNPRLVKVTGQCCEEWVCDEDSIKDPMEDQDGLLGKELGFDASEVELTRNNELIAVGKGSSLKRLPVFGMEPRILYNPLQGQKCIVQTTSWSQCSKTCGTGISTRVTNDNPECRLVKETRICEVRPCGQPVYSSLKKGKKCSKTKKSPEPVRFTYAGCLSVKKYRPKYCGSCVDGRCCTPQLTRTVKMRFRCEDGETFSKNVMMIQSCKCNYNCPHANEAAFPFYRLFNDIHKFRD

[3] = target: T2, NR3C1 C622 (P04150) (Homo sapiens, UniProt P04150); assay: Competitive isoTOP-ABPP, cell lysates; assay type: binding
T2 sequence (P04150 1-777): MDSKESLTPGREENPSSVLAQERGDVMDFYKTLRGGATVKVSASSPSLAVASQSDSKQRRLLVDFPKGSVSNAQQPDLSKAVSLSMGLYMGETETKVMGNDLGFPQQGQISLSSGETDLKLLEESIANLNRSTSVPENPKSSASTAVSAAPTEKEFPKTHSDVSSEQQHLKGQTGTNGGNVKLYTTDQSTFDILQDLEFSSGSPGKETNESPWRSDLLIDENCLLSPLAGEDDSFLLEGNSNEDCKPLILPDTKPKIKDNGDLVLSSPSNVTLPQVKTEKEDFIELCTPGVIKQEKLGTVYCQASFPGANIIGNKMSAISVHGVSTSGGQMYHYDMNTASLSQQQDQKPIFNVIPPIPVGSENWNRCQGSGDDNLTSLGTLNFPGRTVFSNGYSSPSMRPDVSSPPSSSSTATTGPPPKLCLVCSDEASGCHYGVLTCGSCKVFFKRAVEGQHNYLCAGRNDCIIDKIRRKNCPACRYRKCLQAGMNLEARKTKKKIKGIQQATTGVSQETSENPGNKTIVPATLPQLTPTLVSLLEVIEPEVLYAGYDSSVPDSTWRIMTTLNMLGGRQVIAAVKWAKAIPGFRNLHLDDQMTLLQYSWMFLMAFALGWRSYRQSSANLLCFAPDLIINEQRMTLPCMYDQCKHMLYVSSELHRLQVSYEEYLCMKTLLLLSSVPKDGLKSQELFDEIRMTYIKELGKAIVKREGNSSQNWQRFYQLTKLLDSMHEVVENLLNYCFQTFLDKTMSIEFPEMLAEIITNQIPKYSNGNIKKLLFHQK

[4] = target: T3, cysteines in MDA-MB-231 and Ramos cells (Homo sapiens, UniProt Q6QNY0); assay: Competitive isoTOP-ABPP in situ (fragment-treated cells); assay type: cell-based; conditions: 200 μM, insitu
T3 sequence (Q6QNY0 1-202): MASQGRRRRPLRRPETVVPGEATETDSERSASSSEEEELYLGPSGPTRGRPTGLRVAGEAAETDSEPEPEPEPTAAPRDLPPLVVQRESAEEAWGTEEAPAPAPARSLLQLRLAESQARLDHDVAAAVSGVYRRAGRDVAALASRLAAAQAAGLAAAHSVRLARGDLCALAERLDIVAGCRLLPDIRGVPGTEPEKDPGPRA

Chain of USP34 C1090 (Q70CQ2) (Q70CQ2 whole entry): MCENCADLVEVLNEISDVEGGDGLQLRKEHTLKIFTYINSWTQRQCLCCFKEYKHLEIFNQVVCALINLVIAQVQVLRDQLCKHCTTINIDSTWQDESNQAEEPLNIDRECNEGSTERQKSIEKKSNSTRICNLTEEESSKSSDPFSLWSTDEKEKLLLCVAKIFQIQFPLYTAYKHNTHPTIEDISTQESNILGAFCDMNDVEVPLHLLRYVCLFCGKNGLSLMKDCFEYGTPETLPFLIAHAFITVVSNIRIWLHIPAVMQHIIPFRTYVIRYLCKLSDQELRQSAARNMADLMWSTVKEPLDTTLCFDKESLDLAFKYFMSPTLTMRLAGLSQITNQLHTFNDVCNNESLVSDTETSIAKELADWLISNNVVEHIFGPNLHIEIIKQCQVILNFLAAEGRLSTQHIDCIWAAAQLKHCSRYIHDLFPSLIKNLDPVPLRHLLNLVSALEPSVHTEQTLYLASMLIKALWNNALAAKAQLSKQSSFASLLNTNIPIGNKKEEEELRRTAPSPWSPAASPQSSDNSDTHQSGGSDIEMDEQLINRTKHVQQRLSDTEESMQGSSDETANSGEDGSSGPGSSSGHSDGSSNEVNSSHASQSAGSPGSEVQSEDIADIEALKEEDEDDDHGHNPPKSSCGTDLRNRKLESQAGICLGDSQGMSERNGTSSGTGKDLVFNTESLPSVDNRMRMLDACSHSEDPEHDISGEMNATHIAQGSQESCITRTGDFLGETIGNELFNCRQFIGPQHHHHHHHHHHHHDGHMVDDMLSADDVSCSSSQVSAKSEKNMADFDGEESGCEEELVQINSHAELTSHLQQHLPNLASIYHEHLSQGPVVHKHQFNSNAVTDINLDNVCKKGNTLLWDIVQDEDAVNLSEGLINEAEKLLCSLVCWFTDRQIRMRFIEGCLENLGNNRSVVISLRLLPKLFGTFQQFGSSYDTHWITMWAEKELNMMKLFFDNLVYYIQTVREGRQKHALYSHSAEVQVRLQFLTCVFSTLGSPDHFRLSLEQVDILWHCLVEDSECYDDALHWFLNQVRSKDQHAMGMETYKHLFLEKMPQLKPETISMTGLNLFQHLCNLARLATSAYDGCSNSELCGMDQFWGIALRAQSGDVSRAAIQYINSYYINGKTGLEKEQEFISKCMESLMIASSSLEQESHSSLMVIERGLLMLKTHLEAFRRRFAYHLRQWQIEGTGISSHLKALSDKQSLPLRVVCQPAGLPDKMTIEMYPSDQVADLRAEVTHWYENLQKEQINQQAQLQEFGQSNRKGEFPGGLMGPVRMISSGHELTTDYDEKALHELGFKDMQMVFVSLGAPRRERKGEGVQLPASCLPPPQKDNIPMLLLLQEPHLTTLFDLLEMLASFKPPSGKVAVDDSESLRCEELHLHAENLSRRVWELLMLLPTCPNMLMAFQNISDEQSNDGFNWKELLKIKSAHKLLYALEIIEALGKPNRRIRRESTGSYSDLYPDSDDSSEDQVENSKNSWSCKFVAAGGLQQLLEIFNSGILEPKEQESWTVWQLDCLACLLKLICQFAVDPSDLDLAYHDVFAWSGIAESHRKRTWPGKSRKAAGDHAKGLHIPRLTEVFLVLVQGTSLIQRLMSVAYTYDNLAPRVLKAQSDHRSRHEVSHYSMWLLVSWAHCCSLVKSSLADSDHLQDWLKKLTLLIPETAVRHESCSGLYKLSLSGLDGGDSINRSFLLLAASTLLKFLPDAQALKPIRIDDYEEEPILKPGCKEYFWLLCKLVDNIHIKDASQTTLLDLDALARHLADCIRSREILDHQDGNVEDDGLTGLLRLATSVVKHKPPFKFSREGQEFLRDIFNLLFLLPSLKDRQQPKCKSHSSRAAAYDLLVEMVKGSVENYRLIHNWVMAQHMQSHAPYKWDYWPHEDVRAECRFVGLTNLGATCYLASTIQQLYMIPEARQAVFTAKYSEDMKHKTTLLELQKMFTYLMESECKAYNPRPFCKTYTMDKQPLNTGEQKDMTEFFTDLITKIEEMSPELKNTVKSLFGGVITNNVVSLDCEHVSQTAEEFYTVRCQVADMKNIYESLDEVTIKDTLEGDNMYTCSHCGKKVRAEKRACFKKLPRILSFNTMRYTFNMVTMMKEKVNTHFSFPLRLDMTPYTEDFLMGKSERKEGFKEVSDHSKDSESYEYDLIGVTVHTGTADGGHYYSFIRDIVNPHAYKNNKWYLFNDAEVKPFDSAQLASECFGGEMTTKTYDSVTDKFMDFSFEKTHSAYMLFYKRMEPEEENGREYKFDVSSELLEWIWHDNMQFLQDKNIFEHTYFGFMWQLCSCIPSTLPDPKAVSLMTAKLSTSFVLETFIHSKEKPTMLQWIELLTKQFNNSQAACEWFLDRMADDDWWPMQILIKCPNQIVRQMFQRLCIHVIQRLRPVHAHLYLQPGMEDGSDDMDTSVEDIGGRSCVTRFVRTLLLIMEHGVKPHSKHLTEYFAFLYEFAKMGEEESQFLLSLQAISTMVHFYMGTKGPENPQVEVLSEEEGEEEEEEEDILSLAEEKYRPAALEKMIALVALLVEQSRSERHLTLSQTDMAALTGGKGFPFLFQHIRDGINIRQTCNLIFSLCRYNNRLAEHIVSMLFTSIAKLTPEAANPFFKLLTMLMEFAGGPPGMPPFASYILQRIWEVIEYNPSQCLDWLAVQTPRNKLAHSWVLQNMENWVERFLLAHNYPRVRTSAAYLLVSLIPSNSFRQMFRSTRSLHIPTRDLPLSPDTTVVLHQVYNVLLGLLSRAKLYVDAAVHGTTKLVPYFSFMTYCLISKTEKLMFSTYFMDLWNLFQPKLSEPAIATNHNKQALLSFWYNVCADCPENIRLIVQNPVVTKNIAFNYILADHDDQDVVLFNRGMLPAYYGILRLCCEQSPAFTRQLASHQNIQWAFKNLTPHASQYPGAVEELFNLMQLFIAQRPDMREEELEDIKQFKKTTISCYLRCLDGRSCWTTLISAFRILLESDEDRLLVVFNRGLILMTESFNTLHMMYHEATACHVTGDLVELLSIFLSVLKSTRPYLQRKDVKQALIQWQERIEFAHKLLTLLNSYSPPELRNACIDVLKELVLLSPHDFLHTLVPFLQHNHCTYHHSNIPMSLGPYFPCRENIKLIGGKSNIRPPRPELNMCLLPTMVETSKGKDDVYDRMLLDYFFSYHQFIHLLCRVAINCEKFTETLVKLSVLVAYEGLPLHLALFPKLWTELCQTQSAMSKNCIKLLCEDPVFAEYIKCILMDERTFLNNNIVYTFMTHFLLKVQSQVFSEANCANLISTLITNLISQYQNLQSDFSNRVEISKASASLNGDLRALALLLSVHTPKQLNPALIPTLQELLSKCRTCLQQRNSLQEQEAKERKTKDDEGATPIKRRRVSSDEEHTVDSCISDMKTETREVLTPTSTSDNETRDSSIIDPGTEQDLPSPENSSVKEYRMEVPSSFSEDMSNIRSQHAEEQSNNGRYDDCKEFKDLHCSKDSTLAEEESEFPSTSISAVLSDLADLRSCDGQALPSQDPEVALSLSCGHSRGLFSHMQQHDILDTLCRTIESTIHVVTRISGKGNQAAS

isoTOP-ABPP ratio, Q70CQ2_C1090 ([1]; 500 μM, invitro, ramos): 20.0
Compound: C=CC(=O)N(c1ccccc1)c1ccc(Br)cc1 [compound 5]

isoTOP-ABPP ratio (reactivity profile), O00622_C134 [2]: 1.5
Compound: CC(C)CCOCCNC(=O)CCl [compound 27]

R value (DMSO/fragment) ([2]; 500 μM, in vitro, MDA-MB-231): 20.0
R value (DMSO/fragment) ([3]; 500 μM, in vitro, MDA-MB-231): 20.0
R value (DMSO/fragment) ([1]; 500 μM, invitro, ramos): 19.7
Compound: O=C(CCl)Nc1cc(C(F)(F)F)cc(C(F)(F)F)c1 [compound 3]

isoTOP-ABPP ratio (reactivity profile), Q70CQ2_C1090 [1]: 0.9
Compound: O=C(CCl)NC12CC3CC(CC(C3)C1)C2 [compound 21]

isoTOP-ABPP ratio, O00622_C134 ([2]; 500 μM, invitro, 231): 20.0
Compound: O=C(CCl)N1CCN(S(=O)(=O)c2ccccc2F)CC1 [compound 10]

isoTOP-ABPP ratio, P04150_C622 ([3]; 500 μM, invitro, 231): 1.7
Compound: Cn1cc(S(=O)(=O)N2CCOCC2)cc1C(=O)NC(=O)CCl [compound 11]

Compound: O=C(CCl)N1CCC(C(O)(c2ccccc2)c2ccccc2)CC1 [compound 20]
isoTOP-ABPP ratio (reactivity profile), O00622_C134 [2]: 20.0
isoTOP-ABPP ratio (reactivity profile), Q70CQ2_C1090 [1]: 2.7

isoTOP-ABPP ratio Q6QNY0_C168 [4]; 231: 1.0
Compound: C=CC(=O)Nc1cc(F)c(N2CCN(C(=O)OC(C)(C)C)CC2)c(F)c1 [compound 38]

isoTOP-ABPP reactivity ratio, P04150_C622 ([3]; 500 μm, in-vitro_ramos_231): 4.8
Compound: C=CC(=O)N(Cc1cccnc1)c1cc(C(F)(F)F)cc(C(F)(F)F)c1 [compound 31]

isoTOP-ABPP ratio (reactivity profile), O00622_C134 [2]: 1.0
Compound: CC(Cl)C(=O)Nc1cc(C(F)(F)F)cc(C(F)(F)F)c1 (stereo not drawn) [compound 25]

isoTOP-ABPP ratio, cysteine Q6QNY0_C168 ([4]; ramos): 1.2
Compound: O=C(CCl)NCCc1c[nH]c2ccccc12 [compound 13]

isoTOP-ABPP ratio Q6QNY0_C168 ([4]; ramos): 1.6
Compound: O=C(CCl)N1CCN(CC(=O)N2CCOCC2)CC1 [compound 29]
